# Data as given in patent EP3381907A1, “SYMMETRICAL 2-AMINOPHENYL-BENZAZOLYL-5-ACETATE COMPOUNDS AND THEIR USE AS ANTI-HEPARANASE” (Leadiant Biosciences SA, priority 2017, dated 2018).
# Tests used:
# [1] = test system: U2OS (human osteosarcoma); experiment: SRB Cell Cytotoxicity Assay, U2OS; format: cell-based; details: 72h treatment, read-out: Concentration (µM) of test compounds at which the cell growth is inhibited by 50 %. U2OS
# Excerpt: (§1) SRB Cell Cytotoxicity Assay is an assay based upon the quantitative staining of cellular proteins by sulforhodamine B (SRB). This assay can be used for high-throughput drug screening (Vichai & Kirkitara, Nature Protocol. 2006, 1, 112). Sulforhodamine B is an anionic aminoxanthene dye that forms an electrostatic complex with the basic amino acid residues of proteins under moderately acid conditions, which provides a sensitive linear response.
# (§2) To assess a putative antiproliferative activity of the selected compounds, HT1080 (human fibrosarcoma), U87MG (human glioblastoma astrocytoma) and U2OS (human osteosarcoma) cell lines were treated for 72h, in triplicate, with increasing concentrations of heparanase inhibitors. Inhibition of cell proliferation was then measured by the classical colorimetric SRB Cell Cytotoxicity assay. Absorbance was measured by spectrophotometer at a wavelength of 510 nm and cell proliferation was determined as percent with respect to control cells (cells treated with the vehicle alone). EC50 values were then determined by GraphPad Prism.
# [2] = target: T1, heparanase (Homo sapiens, UniProt Q9Y251); experiment: AGA*IA assay: colorimetric fondaparinux cleavage assay for heparanase inhibition (WST-1); format: biochemical; details: 2.5 nM heparanase, 100 µM fondaparinux, pH 5.0, 3 h at 37°C; class symbols
# T1 sequence (Q9Y251 158-543 limits assumed): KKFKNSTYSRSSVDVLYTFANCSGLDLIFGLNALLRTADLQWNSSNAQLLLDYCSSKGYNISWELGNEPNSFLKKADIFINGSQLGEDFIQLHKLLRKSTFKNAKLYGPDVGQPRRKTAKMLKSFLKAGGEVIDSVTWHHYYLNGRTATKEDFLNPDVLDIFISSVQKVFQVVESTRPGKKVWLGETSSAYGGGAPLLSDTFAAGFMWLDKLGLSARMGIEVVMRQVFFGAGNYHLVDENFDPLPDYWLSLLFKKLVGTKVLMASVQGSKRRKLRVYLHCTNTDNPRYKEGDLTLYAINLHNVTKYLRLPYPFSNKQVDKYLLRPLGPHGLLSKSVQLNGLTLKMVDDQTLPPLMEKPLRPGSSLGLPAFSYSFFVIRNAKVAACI
# T1 sequence (Q9Y251 36-109 limits assumed): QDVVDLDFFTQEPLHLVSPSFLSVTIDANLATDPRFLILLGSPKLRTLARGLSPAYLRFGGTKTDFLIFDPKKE
# Procedure: All compounds were tested in a simple, accurate and robust microplate assay based on the cleavage of the synthetic heparin fragment, the pentasaccharide Fondaparinux (AGA*IA). This assay was originally developed by Hammond and coworkers [Hammond E, Li CP, Ferro V. Development of a colorimetric assay for heparanase activity suitable for kinetic analysis and inhibitor screening. Anal. Biochem. 396(1), 112-116 (2010)], where Fondaparinux corresponds to the methyl glycoside of the antithrombin III (ATIII)-activating pentasaccharide sequence of heparin. Fondaparinux is cleaved by heparanase to generate a reducing disaccharide, which can be quantitatively measured via a colorimetric or a fluorescence assay, the last by the fluorescent sensor polymer-H [Schiemann S, Lühn S, Alban S. Development of both colorimetric and fluorescence heparinase activity assays using fondaparinux as substrate. Anal. Biochem. 427(1), 82-89 (2012)].
# The assay measures the appearance of the disaccharide product of heparanase-catalyzed fondaparinux cleavage colorimetrically using the tetrazolium salt WST-1. Assay was essentially performed as described with minor modifications. Briefly, NUNC ELISA 96-well plates were pre-treated with a solution of 4% BSA (bovin serum albumin) in phosphate-buffered saline containing 0.05% Tween 20 (PBST), for 2 h at 37°C, then washed three times with PBST, dried by tapping on paper towel and stored at -20°C. Before use, once again, the plates were washed with PBST.
# Assay was carried out with 100 µl/well of assay solution containing 40 mM sodium acetate buffer (pH 5.0), 100 µM fondaparinux, 2.5 nM heparanase and serial dilutions of test compounds (tested in triplicate). Plates were sealed with adhesive tape and incubated, in the dark, for 3 h at 37°C, followed by development with 1.69 mM of the tetrazolium salt WST-1 solution in 0.1 M NaOH, for 1 h at 60°C. Then, the absorbance at 560 nm was measured through a microplate reader (Victor 3, Perkin Elmer).
# Finally, the measurements were corrected by subtracting both the reagent background and the inner absorbance value of test compound.
# [3] = test system: U87MG (human glioblastoma astrocytoma); experiment: SRB Cell Cytotoxicity Assay, U87MG; format: cell-based; details: U-87 MG, 72h treatment, read-out: Concentration (µM) of test compounds at which the cell growth is inhibited by 50 %. U87MG
# Excerpt: as §1, §2
# [4] = test system: U2OS (human osteosarcoma); experiment: Matrigel cell invasion assay, U2OS; format: cell-based; set-up: key to Invasion Assay Inhibition U2OS: ++: 50-90%; +: < 50%; -: Not Active
# Procedure: (§3) Heparanase inhibitors were then evaluated for their activity on the invasive potential of HT1080 (human fibrosarcoma), U87MG (human glioblastoma astrocytoma) and U2OS (human osteosarcoma) human cell lines, using the Matrigel cell invasion assay which allows to assess the cell invasion ability of malignant and normal cells.
# (§4) Invasion assay was performed using BioCoat cell culture inserts (BioCoat 8.0µm PET Membrane 24 Well Permeable Supports, Corning). Filters were coated with 100 µl of 300 µg/ml Matrigel dissolved in coating buffer (0.01 M Tris pH 8.0, 0.7% NaCl) (Becton-Dickinson Sciences). DMEM (Dulbecco's Modified Eagle's Medium) containing 5% FBS was added to the lower chambers. Cells were pre-treated with heparanase inhibitors for 24 h, detached and added to the upper chambers in media containing the inhibitors. Cells were allowed to invade for 24 h at 37°C in a CO2 incubator and then unmigrated cells were removed from the upper chamber with a cotton swab. The invading cells were fixed, stained with 0.1% crystal violet for 10 min at room temperature, photographed and counted under inverted microscope.
# (§5) Test compounds were analyzed at fixed concentration (2.5 µM) for several fields, in duplicates. Activity of test compounds was compared to the reference compound. Activity of most interesting compound was confirmed in a second cell invasion assay. Data were expressed as the percent invasion with respect to cell migration through uncoated insert membrane (see Table 3 below)
# (§6) Table 3. […] In Invasion assay, data were expressed as the percent invasion (range) with respect to cell migration through uncoated insert membrane. In Adhesion assay, data were expressed as the percent of adhesion with respect to the control (100%). • Legend • ++: 50-90% • + : < 50% • - : Not Active
# [5] = test system: U87MG (human glioblastoma astrocytoma); experiment: Cell adhesion assay on matrigel coated wells, U87MG; format: cell-based; details: percent of adhesion with respect to the control (100%)
# Procedure: (§7) Cell surface, non-integrin molecules such as heparan sulfate proteoglycans (HSPGs) may be involved in the regulation of early adhesive stages of cell-ECM interactions. A cell adhesion assay has been employed to determine if the newly designed heparanase inhibitors were able to interfere with adhesion properties of cancer cells.
# (§8) HT1080 (human fibrosarcoma) and U87MG (human glioblastoma astrocytoma) cells were treated for 18-20 h with test compounds in complete medium supplemented with 10% FCS. Then cells were collected, washed in complete medium, and added to matrigel coated wells in triplicate, at previously identified optimal seeding density, and incubated at 37 °C in complete medium for times ranging from 15 minutes to 4h, according to the cell line. After incubation, the wells were washed three times with serum-free medium and the remaining firmly attached cells were stained with crystal-violet 0.1%. Optical density was measured at 560 nm by Victor 3 (Perkin-Elmer) plate analyzer. Each experiment was repeated three times.
# as §6
# [6] = test system: HT1080 (human fibrosarcoma); experiment: SRB Cell Cytotoxicity Assay, HT1080; format: cell-based; details: HT-1080, HT1080, 72h treatment, read-out: Concentration (µM) of test compounds at which the cell growth is inhibited by 50 %. HT1080
# Excerpt: as §1, §2
# [7] = test system: HT1080 (human fibrosarcoma); experiment: Matrigel cell invasion assay, HT1080; format: cell-based
# Procedure: as §3, §4, §5, §6
# [8] = test system: U87MG (human glioblastoma astrocytoma); experiment: Matrigel cell invasion assay, U87MG; format: cell-based; set-up: key to Invasion Assay Inhibition U87MG: ++: 50-90%; +: < 50%; -: Not Active
# Procedure: as §3, §4, §5, §6
# [9] = test system: HT1080 (human fibrosarcoma); experiment: Cell adhesion assay on matrigel coated wells, HT1080; format: cell-based; details: percent of adhesion with respect to the control (100%)
# Procedure: as §7, §8, §6
SMILES,EC50 [1] [µM],IC50 [2] [µM],EC50 [3] [µM],"inhibition at 2.5 µM ([4]; Homo sapiens, test compound at 2.5 µM, 24 h pre-treatment, 24 h invasion) [%]",Adhesion Assay (%) U87MG ([5]; test compound at 2.5 µM) [%],EC50 [6] [µM],"inhibition at 2.5 µM ([7]; HT-1080, HT1080, test compound at 2.5 µM, 24 h pre-treatment, 24 h invasion) [%]","inhibition at 2.5 µM ([8]; Homo sapiens, U-87 MG, test compound at 2.5 µM, 24 h pre-treatment, 24 h invasion) [%]","Adhesion Assay (%) HT1080 ([9]; HT1080, test compound at 2.5 µM) [%]",Invasion Assay Inhibition U2OS ([4]; reference compound at 10 µM),Adhesion Assay (%) U87MG ([5]; reference compound at 10 µM) [%],"inhibition at 10 µM ([7]; HT-1080, HT1080, reference compound at 10 µM) [%]",Invasion Assay Inhibition U87MG ([8]; reference compound at 10 µM),"Adhesion Assay (%) HT1080 ([9]; HT1080, reference compound at 10 µM) [%]"
"C[C@H](NC(=O)Cc1ccc2oc(-c3ccc(NC(=O)Nc4ccc(-c5nc6cc(CC(=O)N[C@@H](C)C(=O)O)ccc6o5)cc4F)c(F)c3)nc2c1)C(=O)O [Compound 27, (2S,2'S)-2,2'-((2,2'-(((Carbonylbis(azanediyl))bis(3-fluoro-4,1-phenylene))bis(benzo[d]oxazole-2,5-diyl))bis(acetyl))bis(azanediyl))dipropionic acid]",> 10,0.05 to 0.49,> 10,< 50,61.10,> 10,< 50,50 to 90,90.94,,,,,
"Cc1ccc(C(=O)Nc2ccc(S(=O)(=O)O)c3cc(S(=O)(=O)O)cc(S(=O)(=O)O)c23)cc1NC(=O)c1cccc(NC(=O)Nc2cccc(C(=O)Nc3cc(C(=O)Nc4ccc(S(=O)(=O)O)c5cc(S(=O)(=O)O)cc(S(=O)(=O)O)c45)ccc3C)c2)c1 [Suramin, reference compound]",> 10,,> 10,,,> 10,,,,-,100,< 50,-,72.98
